From patent US20100137312A1, “NOVEL AROMATIC HETEROCYCLIC CARBOXYLIC ACID AMIDE DERIVATIVES USEFUL AS POTASSIUM CHANNEL MODULATORS” (neuroSearch A/S, priority 2007, published 2010) come the findings set out here.

For data set [1], the target named is T1, BK channels heterologously expressed in Xenopus laevis oocytes (Homo sapiens, UniProt Q12791).
T1 construct: expressed in transfected cells; host or cells: Xenopus laevis oocytes
Briefly: BK channel opening activity, two-electrode voltage clamp, left-shift of the BK activation curve. The data set is classed as cell-based. As to conditions: 0.01-31.6 μM compound, sigmoidal logistic fit; for EC50: ΔV at control conductance level of +100 mV, read-out: EC50 for the left-shift of the BK activation curve (ΔV vs. concentration). As to the method: In this example the BK channel opening activity of Compound 2 (FIGS. 1A and 1B), Compound 1 (FIGS. 2A and 2B) and Compound 9 (FIGS. 3A and 3B) is determined using BK channels heterologously expressed in Xenopus laevis oocytes.
The electrical current through the BK channel is measured using conventional two-electrode voltage clamp. BK currents are activated by repeating ramp protocols. In brief, the membrane potential is continuously changed from −120 mV to +120 mV within 2 s. The threshold for BK activation is approximately +30 mV under control conditions. Compounds are applies for 100 s during which the ramp protocol is repeated 10 times with 10 s intervals. In between the ramp protocols the membrane potential is clamped at −80 mV. The first three compound applications are control blanks where the current level is allowed to stabilize. In the subsequent 8 applications increasing concentrations (0.01-31.6 μM) of compound is applied and a marked increase in the current level at depolarizing potentials is observed.
In order to evaluate the ability of the compounds to shift the BK activation curve towards lower membrane potentials, the BK current was transformed into conductance by using Ohm's law g=I/(Ememb−Erev), where g is the conductance, I is the current, Ememb is the membrane potential and Erev is the reversal potential. The extracellular solution for these experiments contains 2.5 mM K^+and the intracellular K^+concentration of an oocyte is estimated to be 100 mM. Under those conditions, Nernst equation predicts a reversal potential of Erev=−93.2 mV. The control conductance level at a membrane potential of +100 mV was calculated, and the compound effect was evaluated as the potential difference, ΔV, to the membrane potential at which the same conductance level was obtained in the presence of compound.
The concentration response curve for this potential difference was fitted to the sigmoidal logistic equation: ΔV=ΔVmax/(1+(EC50/[compound])^n), where ΔVmax represents the maximal left shift of the BK activation curve, EC50 is the concentration causing a half maximal response, and n is the slope coefficient.

As a reminder, the melting point is the temperature of the solid-liquid transition.

T1 sequence (Q12791 whole entry): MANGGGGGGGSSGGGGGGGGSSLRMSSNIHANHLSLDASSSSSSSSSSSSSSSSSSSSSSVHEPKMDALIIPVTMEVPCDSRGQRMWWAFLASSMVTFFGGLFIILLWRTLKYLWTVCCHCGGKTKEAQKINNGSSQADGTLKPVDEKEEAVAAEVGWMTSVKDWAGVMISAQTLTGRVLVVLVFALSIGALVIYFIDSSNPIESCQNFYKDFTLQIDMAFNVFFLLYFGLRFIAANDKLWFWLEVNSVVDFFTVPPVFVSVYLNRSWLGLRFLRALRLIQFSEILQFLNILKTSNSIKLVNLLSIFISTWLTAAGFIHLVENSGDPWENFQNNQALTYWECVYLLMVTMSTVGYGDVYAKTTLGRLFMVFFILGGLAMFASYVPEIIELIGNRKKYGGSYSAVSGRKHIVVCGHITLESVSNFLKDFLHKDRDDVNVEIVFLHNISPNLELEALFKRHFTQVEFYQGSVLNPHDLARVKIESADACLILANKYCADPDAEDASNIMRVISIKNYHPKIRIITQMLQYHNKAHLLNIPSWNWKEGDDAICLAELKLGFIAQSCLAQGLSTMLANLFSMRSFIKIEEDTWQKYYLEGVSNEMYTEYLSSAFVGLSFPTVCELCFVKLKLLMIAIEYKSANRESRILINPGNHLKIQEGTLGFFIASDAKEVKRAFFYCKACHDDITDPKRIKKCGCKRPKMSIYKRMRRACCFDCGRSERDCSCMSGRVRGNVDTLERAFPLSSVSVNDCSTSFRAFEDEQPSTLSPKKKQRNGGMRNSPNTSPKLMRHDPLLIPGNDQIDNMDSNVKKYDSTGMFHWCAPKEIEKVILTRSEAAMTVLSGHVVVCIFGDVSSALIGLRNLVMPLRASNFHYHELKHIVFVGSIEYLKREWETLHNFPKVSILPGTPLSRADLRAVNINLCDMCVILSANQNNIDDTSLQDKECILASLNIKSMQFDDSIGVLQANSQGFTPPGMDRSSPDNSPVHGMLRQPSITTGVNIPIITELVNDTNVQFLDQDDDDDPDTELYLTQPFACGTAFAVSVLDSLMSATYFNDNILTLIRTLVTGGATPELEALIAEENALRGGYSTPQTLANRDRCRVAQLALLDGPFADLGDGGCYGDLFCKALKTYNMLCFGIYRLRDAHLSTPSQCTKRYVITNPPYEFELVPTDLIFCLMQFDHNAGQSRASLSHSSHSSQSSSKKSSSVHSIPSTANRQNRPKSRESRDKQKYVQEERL

On to `O=C(Nc1cc(Cl)ccc1OCc1nnn[nH]1)c1cc(-c2ccc(Cl)cc2)oc1C(F)(F)F` [Compound 7, 5-(4-Chloro-phenyl)-2-trifluoromethyl-furan-3-carboxylic acid [5-chloro-2-(1H-tetrazol-5-ylmethoxy)-phenyl]-amide], for which the melting point lay in the range of 226.9 to 236.1 °C. As for `Cc1nc(-c2ccc(C(F)(F)F)cc2)sc1C(=O)Nc1cc(Cl)ccc1-c1nnn[nH]1` [Compound 9, 4-Methyl-2-(4-trifluoromethyl-phenyl)-thiazole-5-carboxylic acid [5-chloro-2-(1H-tetrazol-5-yl)-phenyl]-amide], the melting point was 325 to 337.2 °C. In addition, in data set [1], the “maximal left-shift of the BK activation curve (ΔVmax)” value (“maximal left-shift … (ΔVmax)” below) is reported as −99 mV and the EC50 turned out to be 970 nM. On to `Cc1oc(-c2ccc(Cl)cc2)cc1C(=O)Nc1cc(Cl)ccc1-c1nnn[nH]1` [Compound 12, 5-(4-Chloro-phenyl)-2-methyl-furan-3-carboxylic acid [5-chloro-2-(1H-tetrazol-5-yl)-phenyl]-amide], for which the melting point was in the range of 246.7 to 255.4 °C. `Cc1oc(-c2ccc(Cl)cc2)cc1C(=O)Nc1cc(Cl)ccc1-c1noc(=O)[nH]1` [Compound 20, 5-(4-Chloro-phenyl)-2-methyl-furan-3-carboxylic acid [5-chloro-2-(5-oxo-4,5-dihydro-[1,2,4]oxadiazol-3-yl)-phenyl]-amide] showed a melting point of 248.1 to 250.9 °C. `CS(=O)(=O)NC(=O)c1ccc(Cl)cc1NC(=O)c1cc(-c2ccc(Cl)cc2)oc1C(F)(F)F` [Compound 5, 5-(4-Chloro-phenyl)-2-trifluoromethyl-furan-3-carboxylic acid (5-chloro-2-methanesulfonylaminocarbonyl-phenyl)-amide] displayed a melting point of 259 to 262 °C. In turn, `O=C(Nc1cc(Cl)ccc1-c1nnn[nH]1)c1cnn(-c2ccc(Cl)cc2)c1C(F)(F)F` [Compound 2, 1-(4-Chloro-phenyl)-5-trifluoromethyl-1H-pyrazole-4-carboxylic acid [5-chloro-2-(1H-tetrazol-5-yl)-phenyl]-amide] came in with a melting point of 176.3 to 180.4 °C. In addition, in data set [1], the “maximal left-shift … (ΔVmax)” value is recorded as −94 mV and the EC50 stood at 2400 nM. `O=C(O)c1cc(F)c(F)cc1NC(=O)c1cc(-c2ccc(Cl)cc2)oc1C(F)(F)F` [Compound 13, 2-{[5-(4-Chloro-phenyl)-2-trifluoromethyl-furan-3-carbonyl]-amino}-4,5-difluoro-benzoic acid]: the melting point was in the range of 337.2 to 340.2 °C. For the molecule `O=C(Nc1cc(Cl)ccc1-c1nnn[nH]1)c1cc(-c2ccc(Cl)cc2)oc1C(F)(F)F` [Compound 1, 5-(4-Chloro-phenyl)-2-trifluoromethyl-furan-3-carboxylic acid [5-chloro-2-(1H-tetrazol-5-yl)-phenyl]-amide], in data set [1], the “maximal left-shift … (ΔVmax)” value was −88 mV and the EC50 came to 4400 nM.
